{"source": "ChEMBL document CHEMBL5576122", "about": "“Discovery of Novel Azaphenothiazine Derivatives to Suppress Endometrial Cancer by Targeting GRP75 to Impair Its Interaction with IP3R and Mitochondrial Ca2+ Homeostasis” (J Med Chem, 2024)", "key": {"[1]": {"test_system": "Ishikawa", "experiment": "Inhibition of cell proliferation in human Ishikawa cells incubated for 48 hrs by CCK-8 assay"}, "[2]": {"test_system": "KLE", "experiment": "Inhibition of cell proliferation in human KLE cells incubated for 48 hrs by CCK-8 assay"}, "[3]": {"molecular_target": "CYP2C9 (Homo sapiens, UniProt P11712)", "sequence (P11712 whole entry)": "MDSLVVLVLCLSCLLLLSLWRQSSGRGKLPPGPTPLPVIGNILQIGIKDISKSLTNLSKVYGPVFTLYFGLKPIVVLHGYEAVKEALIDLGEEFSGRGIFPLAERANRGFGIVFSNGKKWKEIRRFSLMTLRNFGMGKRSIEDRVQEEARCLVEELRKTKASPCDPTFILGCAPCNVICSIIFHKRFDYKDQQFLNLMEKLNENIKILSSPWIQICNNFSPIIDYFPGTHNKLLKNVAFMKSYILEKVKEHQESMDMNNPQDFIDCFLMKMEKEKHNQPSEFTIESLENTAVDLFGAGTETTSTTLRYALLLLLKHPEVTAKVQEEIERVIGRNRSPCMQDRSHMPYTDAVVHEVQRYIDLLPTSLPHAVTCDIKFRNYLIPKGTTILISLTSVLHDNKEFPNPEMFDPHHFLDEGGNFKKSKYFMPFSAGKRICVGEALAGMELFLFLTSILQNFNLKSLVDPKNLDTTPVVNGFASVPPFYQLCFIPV", "experiment": "Inhibition of CYP2C9 (unknown origin) at 10 uM relative to control", "type": "ADME"}, "[4]": {"molecular_target": "CYP2D6 (Homo sapiens, UniProt P10635)", "sequence (P10635 whole entry)": "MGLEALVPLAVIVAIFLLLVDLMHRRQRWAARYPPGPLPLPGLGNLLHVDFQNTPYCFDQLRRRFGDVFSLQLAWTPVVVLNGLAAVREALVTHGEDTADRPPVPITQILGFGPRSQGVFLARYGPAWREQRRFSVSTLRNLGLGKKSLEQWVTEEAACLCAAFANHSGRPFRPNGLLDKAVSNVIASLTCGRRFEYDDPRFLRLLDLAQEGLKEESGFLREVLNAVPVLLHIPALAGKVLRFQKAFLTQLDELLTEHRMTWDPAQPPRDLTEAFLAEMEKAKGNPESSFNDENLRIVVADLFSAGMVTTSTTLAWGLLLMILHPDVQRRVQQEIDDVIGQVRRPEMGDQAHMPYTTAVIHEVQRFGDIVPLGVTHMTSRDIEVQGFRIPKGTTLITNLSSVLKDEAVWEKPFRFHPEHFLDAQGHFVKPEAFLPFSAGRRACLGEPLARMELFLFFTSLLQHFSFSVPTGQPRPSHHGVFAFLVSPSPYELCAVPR", "experiment": "Inhibition of CYP2D6 (unknown origin) at 10 uM relative to control", "type": "ADME"}, "[5]": {"molecular_target": "CYP2C19 (Homo sapiens, UniProt P33261)", "sequence (P33261 whole entry)": "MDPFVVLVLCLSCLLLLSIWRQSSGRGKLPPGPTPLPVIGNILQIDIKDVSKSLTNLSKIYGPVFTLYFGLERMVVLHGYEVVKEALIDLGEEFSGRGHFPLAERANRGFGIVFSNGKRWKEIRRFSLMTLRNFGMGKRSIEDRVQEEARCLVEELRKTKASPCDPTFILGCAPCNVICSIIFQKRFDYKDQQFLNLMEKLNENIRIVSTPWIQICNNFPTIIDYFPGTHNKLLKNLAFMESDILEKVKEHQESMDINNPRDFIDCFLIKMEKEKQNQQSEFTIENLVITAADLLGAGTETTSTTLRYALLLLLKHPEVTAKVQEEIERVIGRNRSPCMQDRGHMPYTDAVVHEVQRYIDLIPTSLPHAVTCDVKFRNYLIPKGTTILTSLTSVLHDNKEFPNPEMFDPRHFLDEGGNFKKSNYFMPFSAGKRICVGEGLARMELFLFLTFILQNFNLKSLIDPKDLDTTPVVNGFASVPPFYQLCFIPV", "experiment": "Inhibition of CYP2C19 (unknown origin) at 10 uM relative to control", "type": "ADME"}, "[6]": {"molecular_target": "CYP3A4 (Homo sapiens, UniProt P08684)", "sequence (P08684 whole entry)": "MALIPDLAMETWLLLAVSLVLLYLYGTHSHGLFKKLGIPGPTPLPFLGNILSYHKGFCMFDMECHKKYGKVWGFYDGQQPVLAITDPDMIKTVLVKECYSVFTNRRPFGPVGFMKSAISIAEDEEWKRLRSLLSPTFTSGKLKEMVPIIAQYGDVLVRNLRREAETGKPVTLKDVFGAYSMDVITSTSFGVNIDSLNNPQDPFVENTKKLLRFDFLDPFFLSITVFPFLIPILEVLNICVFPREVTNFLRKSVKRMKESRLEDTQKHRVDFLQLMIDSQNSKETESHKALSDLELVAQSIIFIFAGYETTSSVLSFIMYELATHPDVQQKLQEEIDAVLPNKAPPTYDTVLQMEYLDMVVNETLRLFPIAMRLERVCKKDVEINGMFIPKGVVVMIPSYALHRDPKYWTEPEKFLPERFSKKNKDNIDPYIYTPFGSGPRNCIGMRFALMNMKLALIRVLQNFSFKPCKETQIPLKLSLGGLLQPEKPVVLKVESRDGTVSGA", "experiment": "Inhibition of CYP3A4 (unknown origin) at 10 uM relative to control", "type": "ADME"}, "[7]": {"molecular_target": "T1, CYP1A2 (Homo sapiens, UniProt P05177)", "T1 sequence (P05177 whole entry)": "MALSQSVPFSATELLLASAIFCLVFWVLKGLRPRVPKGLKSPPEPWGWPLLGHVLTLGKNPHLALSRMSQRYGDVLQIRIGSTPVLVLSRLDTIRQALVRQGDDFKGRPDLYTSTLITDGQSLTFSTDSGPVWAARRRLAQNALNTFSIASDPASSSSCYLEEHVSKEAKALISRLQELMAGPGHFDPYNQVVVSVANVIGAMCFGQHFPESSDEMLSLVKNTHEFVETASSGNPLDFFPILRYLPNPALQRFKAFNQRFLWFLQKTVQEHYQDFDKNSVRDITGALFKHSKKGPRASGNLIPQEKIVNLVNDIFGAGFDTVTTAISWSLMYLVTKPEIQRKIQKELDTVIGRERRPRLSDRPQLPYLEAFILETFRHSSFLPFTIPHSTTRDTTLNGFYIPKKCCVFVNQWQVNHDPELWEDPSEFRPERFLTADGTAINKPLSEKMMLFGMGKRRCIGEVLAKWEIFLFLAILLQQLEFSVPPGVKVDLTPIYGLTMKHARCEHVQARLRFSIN", "experiment": "Inhibition of CYP1A2 (unknown origin) at 10 uM relative to control", "type": "ADME"}, "[8]": {"experiment": "in vitro", "details": "human, liver microsomes"}, "[9]": {"experiment": "in vitro", "details": "mouse, liver microsomes"}, "[10]": {"experiment": "in vitro", "details": "mouse, liver microsomes", "remark": "listed apart in the source", "description": "Metabolic stability in mouse liver microsomes assessed as half life"}, "[11]": {"experiment": "in vitro", "details": "plasma", "description": "Protein binding in plasma (unknown origin)"}, "[12]": {"experiment": "in vitro", "details": "human, liver microsomes", "remark": "listed apart in the source"}}, "data": [{"smiles": "Clc1ccc2c(c1)N(CCCCCN1CCC3(CC1)CCN(Cc1ccccn1)CC3)c1ncccc1S2", "values": [{"measurement": "IC50", "setting": "[1]", "value": 12.8, "unit": "µM"}]}, {"smiles": "CC(C)(C)OC(=O)N1CC2(CCN(CCCCCN3c4cc(Cl)ccc4Sc4cccnc43)CC2)C1", "values": [{"measurement": "IC50", "setting": "[1]", "value": 11.4, "unit": "µM"}]}, {"smiles": "CC(C)(C)OC(=O)N1CCC2(CC1)CCN2CCCCCN1c2cc(Cl)ccc2Sc2cccnc21", "values": [{"measurement": "IC50", "setting": "[2]", "value": 6.23, "unit": "µM"}, {"measurement": "IC50", "setting": "[1]", "value": 6.13, "unit": "µM"}]}, {"smiles": "CC(C)(C)OC(=O)N1CCC2(CN(CCCCCN3c4cc(Cl)ccc4Sc4cccnc43)C2)C1", "values": [{"measurement": "IC50", "setting": "[1]", "value": 12.7, "unit": "µM"}]}, {"smiles": "CN1CCC2(CC1)CCN(CCCCCN1c3cc(Cl)ccc3Sc3cccnc31)CC2", "values": [{"measurement": "IC50", "setting": "[2]", "value": 3.17, "unit": "µM"}, {"measurement": "IC50", "setting": "[1]", "value": 1.21, "unit": "µM"}]}, {"smiles": "CC(=O)N1CCC2(CCN(CCCCCN3c4cc(Cl)ccc4Sc4cccnc43)CC2)CC1", "values": [{"measurement": "IC50", "setting": "[1]", "value": 10.4, "unit": "µM"}]}, {"smiles": "CN1CCC2(CC1)CCN(CCCCCN1c3cc(OCc4ccccc4)ccc3Sc3cccnc31)CC2", "values": [{"measurement": "IC50", "setting": "[1]", "value": 14.6, "unit": "µM"}]}, {"smiles": "O=C1CC2(CCN(CCCCCN3c4cc(Cl)ccc4Sc4cccnc43)CC2)C(=O)N1", "values": [{"measurement": "IC50", "setting": "[1]", "value": 14.5, "unit": "µM"}]}, {"smiles": "CC(C)(C)OC(=O)N1CCC2(CC1)CN(CCCCCN1c3cc(Cl)ccc3Sc3cccnc31)C2", "values": [{"measurement": "IC50", "setting": "[1]", "value": 8.23, "unit": "µM"}]}, {"smiles": "CC(C)(C)OC(=O)N1C[C@]2(C)C[C@@]1(C)CN2CCCCCN1c2cc(Cl)ccc2Sc2cccnc21", "values": [{"measurement": "IC50", "setting": "[1]", "value": 18.7, "unit": "µM"}]}, {"smiles": "CC(C)(C)OC(=O)N1CCC2(CCCN(CCCCCN3c4cc(Cl)ccc4Sc4cccnc43)C2)CC1", "values": [{"measurement": "IC50", "setting": "[1]", "value": 47.5, "unit": "µM"}]}, {"smiles": "CC(C)(C)OC(=O)N1CCC2(CCN(CCCCCN3c4cc(C(F)(F)F)ccc4Sc4cccnc43)CC2)CC1", "values": [{"measurement": "IC50", "setting": "[2]", "value": 14.5, "unit": "µM"}, {"measurement": "IC50", "setting": "[1]", "value": 6.75, "unit": "µM"}]}, {"smiles": "CC(C)(C)OC(=O)N1CCC2(CCCN2CCCCCN2c3cc(Cl)ccc3Sc3cccnc32)CC1", "values": [{"measurement": "IC50", "setting": "[1]", "value": 13.3, "unit": "µM"}]}, {"smiles": "CC(C)(C)OC(=O)N1CCC2(CCN(CCCCCN3c4cc(Cl)ccc4Sc4cccnc43)CC2)C1", "values": [{"measurement": "IC50", "setting": "[2]", "value": 10.7, "unit": "µM"}, {"measurement": "IC50", "setting": "[1]", "value": 735, "unit": "µM"}]}, {"smiles": "CC(C)(C)OC(=O)N1CCC2(CCN(CCCCCN3c4cc(Cl)ccc4Sc4cccnc43)CC2)CC1", "values": [{"measurement": "IC50", "setting": "[2]", "value": 9.55, "unit": "µM"}, {"measurement": "IC50", "setting": "[1]", "value": 5.37, "unit": "µM"}]}, {"smiles": "CC(C)(C)OC(=O)N1CCC2(CCN(CCCCCN3c4ccccc4Sc4cccnc43)CC2)CC1", "values": [{"measurement": "IC50", "setting": "[2]", "value": 9.99, "unit": "µM"}, {"measurement": "IC50", "setting": "[1]", "value": 6, "unit": "µM"}]}, {"smiles": "CCCN1CCC2(CC1)CCN(CCCCCN1c3cc(Cl)ccc3Sc3cccnc31)CC2", "values": [{"measurement": "IC50", "setting": "[2]", "value": 3.53, "unit": "µM"}, {"measurement": "IC50", "setting": "[1]", "value": 1.41, "unit": "µM"}]}, {"smiles": "C#CCN1CCC2(CC1)CCN(CCCCCN1c3cc(Cl)ccc3Sc3cccnc31)CC2", "values": [{"measurement": "IC50", "setting": "[2]", "value": 8.31, "unit": "µM"}, {"measurement": "IC50", "setting": "[1]", "value": 4.58, "unit": "µM"}]}, {"smiles": "CC(C)(C)OC(=O)N1CCC2(CCN(CCCCN3c4cc(Cl)ccc4Sc4cccnc43)CC2)CC1", "values": [{"measurement": "IC50", "setting": "[1]", "value": 11.1, "unit": "µM"}]}, {"smiles": "Clc1ccc2c(c1)N(CCCCCN1CCC3(CC1)CCN(Cc1ccccc1)CC3)c1ncccc1S2", "values": [{"measurement": "IC50", "setting": "[2]", "value": 3.96, "unit": "µM"}, {"measurement": "IC50", "setting": "[1]", "value": 2.4, "unit": "µM"}]}, {"smiles": "CC(C)(C)OC(=O)N1CCC2(CCN(CCCCCN3c4cc(Cl)ccc4Sc4cccnc43)C2)C1", "note": "(centres undefined)", "values": [{"measurement": "IC50", "setting": "[1]", "value": 10.9, "unit": "µM"}]}, {"smiles": "CC(C)(C)OC(=O)N1C2CC1CN(CCCCCN1c3cc(Cl)ccc3Sc3cccnc31)C2", "values": [{"measurement": "IC50", "setting": "[1]", "value": 53.4, "unit": "µM"}]}, {"smiles": "COc1ccc2c(c1)N(CCCCCN1CCC3(CCN(C)CC3)CC1)c1ncccc1S2", "values": [{"measurement": "inhibition at 10 µM", "setting": "[3]", "value": 7, "unit": "%"}, {"measurement": "inhibition at 10 µM", "setting": "[4]", "value": 14.8, "unit": "%"}, {"measurement": "inhibition at 10 µM", "setting": "[5]", "value": 7.5, "unit": "%"}, {"measurement": "inhibition at 10 µM", "setting": "[6]", "value": 20, "unit": "%"}, {"measurement": "inhibition at 10 µM", "setting": "[7]", "value": 0, "unit": "%"}]}, {"smiles": "CC(C)(C)OC(=O)N1CCC2(CCN(CCCCCN3c4cc(Cl)ccc4Sc4cccnc43)C2)CC1", "values": [{"measurement": "IC50", "setting": "[1]", "value": 11.6, "unit": "µM"}]}, {"smiles": "CC(C)(C)OC(=O)N1CC2(CN(CCCCCN3c4cc(Cl)ccc4Sc4cccnc43)C2)C1", "values": [{"measurement": "IC50", "setting": "[1]", "value": 12.2, "unit": "µM"}]}, {"smiles": "CCN(CC)c1ccc2c(c1)N(CCCCCN1CCC3(CCN(C)CC3)CC1)c1ncccc1S2", "values": [{"measurement": "IC50", "setting": "[1]", "value": 17.5, "unit": "µM"}]}, {"smiles": "CC(C)(C)OC(=O)N1CCCC12CCN(CCCCCN1c3cc(Cl)ccc3Sc3cccnc31)CC2", "values": [{"measurement": "IC50", "setting": "[2]", "value": 8.52, "unit": "µM"}, {"measurement": "IC50", "setting": "[1]", "value": 7.4, "unit": "µM"}]}, {"smiles": "CC(C)(C)OC(=O)N1CC2(CCN(CCCCCN3c4cc(Cl)ccc4Sc4cccnc43)C2)C1", "values": [{"measurement": "IC50", "setting": "[1]", "value": 14.4, "unit": "µM"}]}, {"smiles": "CC(C)(C)OC(=O)N1CCC2(CC1)CN(CCCCCN1c3cc(Cl)ccc3Sc3cccnc31)CCO2", "values": [{"measurement": "IC50", "setting": "[1]", "value": 45.4, "unit": "µM"}]}, {"smiles": "Clc1ccc(CN2CCC3(CCN(CCCCCN4c5cc(Cl)ccc5Sc5cccnc54)CC3)CC2)cc1", "values": [{"measurement": "IC50", "setting": "[2]", "value": 3.49, "unit": "µM"}, {"measurement": "IC50", "setting": "[1]", "value": 2.57, "unit": "µM"}]}, {"smiles": "O=C1CC2(CCN(Cc3ccccc3)CC2)CC(=O)N1CCCCCN1c2cc(Cl)ccc2Sc2cccnc21", "values": [{"measurement": "IC50", "setting": "[1]", "value": 27.5, "unit": "µM"}]}, {"smiles": "CC(C)(C)OC(=O)N1CCC2(CCN(CCCCCCN3c4cc(Cl)ccc4Sc4cccnc43)CC2)CC1", "values": [{"measurement": "IC50", "setting": "[1]", "value": 13.3, "unit": "µM"}]}, {"smiles": "CC(C)(C)OC(=O)N1CC2CC1CN2CCCCCN1c2cc(Cl)ccc2Sc2cccnc21", "note": "(centres undefined)", "values": [{"measurement": "IC50", "setting": "[1]", "value": 21.3, "unit": "µM"}]}, {"smiles": "Clc1ccc2c(c1)N(CCCCCN1CCC3(CCNCC3)CC1)c1ncccc1S2", "values": [{"measurement": "IC50", "setting": "[2]", "value": 2.88, "unit": "µM"}, {"measurement": "IC50", "setting": "[1]", "value": 1.7, "unit": "µM"}]}, {"smiles": "COc1ccc2c(c1)N(CCCCCN1CCC3(CC1)CCN(C(=O)OC(C)(C)C)CC3)c1ncccc1S2", "values": [{"measurement": "IC50", "setting": "[2]", "value": 8.06, "unit": "µM"}, {"measurement": "IC50", "setting": "[1]", "value": 3.95, "unit": "µM"}]}, {"smiles": "CN(C)CCCN1c2ccccc2Sc2ccc(Cl)cc21.Cl", "note": "[CHLORPROMAZINE HYDROCHLORIDE]", "values": [{"measurement": "CLint scaled", "setting": "[8]", "value": 52.3, "unit": "mL/min/kg"}, {"measurement": "CLint scaled", "setting": "[9]", "value": 724, "unit": "mL/min/kg"}, {"measurement": "half-life", "setting": "[10]", "value": 7.6, "unit": "min"}, {"measurement": "IC50", "setting": "[2]", "value": 35, "unit": "µM"}, {"measurement": "IC50", "setting": "[1]", "value": 22, "unit": "µM"}, {"measurement": "fraction unbound", "setting": "[11]", "value": 0.0156}, {"measurement": "half-life", "setting": "[12]", "value": 23.8, "unit": "min"}]}]}
